Holding throughout (assay type): biochemical
The target in one experiment is T1, hCA I (Homo sapiens, UniProt P00915).
T1 construct: made in house
The experiment can be described thus: stopped-flow CO2 hydrase assay, hCA I. Particulars: recombinant hCA I; mean from 3 different assays, errors ±5–10%. On the procedure:
(§1) An applied photophysics stopped-flow instrument has been used for assaying the CA-catalyzed CO2 hydration activity. Phenol red (0.2 mM) has been used as indicator, working at the absorbance maximum of 557 nm, with 20 mM Hepes (pH 7.5, for α-CAs) as buffer, and 20 mM NaClO4 (for maintaining constant the ionic strength), following the initial rates of the CA-catalyzed CO2 hydration reaction for a period of 10–100 s. The CO2 concentrations ranged from 1.7 to 17 mM for the determination of the kinetic parameters and inhibition constants. […] The uncatalyzed rates were determined in the same manner and subtracted from the total observed rates. Stock solutions of each inhibitor (1 µM) were prepared in distilled-deionized water and dilutions up to 0.1 nM were done thereafter with the assay buffer. […] The inhibition constants were obtained by non-linear least-squares methods using PRISM 3 and the Cheng–Prusoff equation, and represent the average from at least three different determinations. All recombinant CA isoforms were obtained in-house as previously reported[38]^,[39].

Another experiment addresses T2, hCA II (Homo sapiens, UniProt P00918).
T2 construct: made in house
As to the kind of experiment: stopped-flow CO2 hydrase assay, hCA II. Conditions: recombinant hCA II; mean from 3 different assays, errors ±5–10%. The protocol: as §1

Another experiment has as its target T3, hCA IX (Homo sapiens, UniProt Q16790).
T3 construct: made in house
As to the kind of experiment: stopped-flow CO2 hydrase assay, hCA IX. Particulars: recombinant hCA IX; mean from 3 different assays, errors ±5–10%. On the procedure: as §1

The target of another experiment is T4, hCA XII (Homo sapiens, UniProt O43570).
T4 construct: made in house
T4 sequence (O43570 25-354): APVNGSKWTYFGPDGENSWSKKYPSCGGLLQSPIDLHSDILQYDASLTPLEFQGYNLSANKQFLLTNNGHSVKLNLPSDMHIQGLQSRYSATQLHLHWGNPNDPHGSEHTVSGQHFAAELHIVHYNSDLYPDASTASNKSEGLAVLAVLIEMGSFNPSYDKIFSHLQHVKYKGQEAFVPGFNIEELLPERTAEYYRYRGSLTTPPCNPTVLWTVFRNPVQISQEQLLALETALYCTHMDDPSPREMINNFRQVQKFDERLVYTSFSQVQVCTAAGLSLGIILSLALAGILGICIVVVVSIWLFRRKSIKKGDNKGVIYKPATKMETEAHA
As to the kind of experiment: stopped-flow CO2 hydrase assay, hCA XII. Conditions: recombinant hCA XII; mean from 3 different assays, errors ±5–10%. On the procedure: as §1

Bounds are passed on as bounds.

Broadly, the Ki is a measure of affinity in units of concentration, obtained from inhibition or displacement.

T1 sequence (P00915 whole entry): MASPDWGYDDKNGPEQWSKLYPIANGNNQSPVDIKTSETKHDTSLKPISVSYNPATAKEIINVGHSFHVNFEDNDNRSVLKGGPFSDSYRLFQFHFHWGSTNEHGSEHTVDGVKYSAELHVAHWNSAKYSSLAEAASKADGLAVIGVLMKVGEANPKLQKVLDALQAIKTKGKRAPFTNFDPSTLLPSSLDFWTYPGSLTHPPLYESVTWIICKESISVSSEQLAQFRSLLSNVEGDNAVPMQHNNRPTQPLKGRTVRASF

Regarding `COc1cccc(C(O)CNS(=O)(=O)c2ccccc2CO)c1` (stereo not drawn) [Compound 21, N-(2-hydroxy-2-(3-methoxyphenyl)ethyl)-2-(hydroxymethyl)benzenesulfonamide], the Ki at hCA I is more than 10000 nM; at hCA II, more than 10000 nM; at hCA IX it was 31 nM; on hCA XII, 355 nM.

Take `Cc1ccccc1CNS(=O)(=O)c1ccccc1CO` [Compound 1, 2-(Hydroxymethyl)-N-(2-methylbenzyl)benzenesulfonamide]: the Ki is more than 10000 nM on hCA I, more than 10000 nM at hCA II, 218 nM on hCA IX and 4.6 nM on hCA XII.

On to `O=[N+]([O-])c1cccc(CNS(=O)(=O)c2ccccc2CO)c1` [Compound 7, 2-(Hydroxymethyl)-N-(3-nitrobenzyl)benzenesulfonamide], for which the Ki on hCA I is more than 10000 nM; at hCA II, more than 10000 nM; on hCA IX, 176 nM; on hCA XII it was 382 nM.

In the case of `O=S(=O)(NCc1ccc(Cl)cc1)c1ccccc1CO` [Compound 15, N-(4-chlorobenzyl)-2-(hydroxymethyl)benzenesulfonamide], the Ki was more than 10000 nM at hCA I, more than 10000 nM on hCA II, 154 nM on hCA IX and 48 nM at hCA XII.

Consider `O=S(=O)(NCC(O)c1ccccc1)c1ccccc1CO` (stereo not drawn) [Compound 20, N-(2-hydroxy-2-phenylethyl)-2-(hydroxymethyl)benzenesulfonamide], for which the Ki at hCA I is more than 10000 nM; at hCA II it was more than 10000 nM; on hCA IX, 224 nM; on hCA XII, 64 nM.

Turning to `O=S(=O)(NCc1cccc(C(F)(F)F)c1)c1ccccc1CO` [Compound 6, 2-(Hydroxymethyl)-N-(3-(trifluoromethyl)benzyl)benzenesulfonamide], the Ki was more than 10000 nM on hCA I, more than 10000 nM at hCA II, 238 nM on hCA IX and 4.4 nM at hCA XII.

In the case of `O=[N+]([O-])c1ccc(CNS(=O)(=O)c2ccccc2CO)cc1` [Compound 13, 2-(Hydroxymethyl)-N-(4-nitrobenzyl)benzenesulfonamide], the Ki is more than 10000 nM on hCA I, more than 10000 nM on hCA II, 20 nM on hCA IX and 54 nM on hCA XII.

As for `Cc1cccc(CNS(=O)(=O)c2ccccc2CO)c1` [Compound 5, 2-(Hydroxymethyl)-N-(3-methylbenzyl)benzenesulfonamide], the Ki was more than 10000 nM at hCA I, more than 10000 nM at hCA II, 223 nM at hCA IX and 4.3 nM at hCA XII.

With `Cc1ccc(CNS(=O)(=O)c2ccccc2CO)cc1` [Compound 10, 2-(Hydroxymethyl)-N-(4-methylbenzyl)benzenesulfonamide], the inhibition constant (Ki) at hCA I was more than 10000 nM; on hCA II, more than 10000 nM; at hCA IX, 120 nM; at hCA XII, 5.7 nM.

Take `O=S(=O)(NCc1ccc(C(F)(F)F)cc1)c1ccccc1CO` [Compound 11, 2-(Hydroxymethyl)-N-(4-(trifluoromethyl)benzyl)benzenesulfonamide]: the Ki is more than 10000 nM on hCA I, more than 10000 nM on hCA II, 253 nM on hCA IX and 7.2 nM at hCA XII.

Take `O=S(=O)(NCc1ccccc1Br)c1ccccc1CO` [Compound 4, N-(2-bromobenzyl)-2-(hydroxymethyl)benzenesulfonamide]: the Ki on hCA I was more than 10000 nM; at hCA II, more than 10000 nM; at hCA IX, 113 nM; at hCA XII it was 323 nM.

With `O=S(=O)(NCc1cccc2ccccc12)c1ccccc1CO` [Compound 19, 2-(Hydroxymethyl)-N-(naphthalen-1-ylmethyl)benzenesulfonamide], the Ki was more than 10000 nM on hCA I, more than 10000 nM at hCA II, 294 nM at hCA IX and 345 nM on hCA XII.

Regarding `N#Cc1ccc(CNS(=O)(=O)c2ccccc2CO)cc1` [Compound 12, N-(4-cyanobenzyl)-2-(hydroxymethyl)benzenesulfonamide], the Ki at hCA I is more than 10000 nM; at hCA II it was more than 10000 nM; at hCA IX, 126 nM; at hCA XII it was 57 nM.

`O=[N+]([O-])c1ccccc1CNS(=O)(=O)c1ccccc1CO` [Compound 3, 2-(Hydroxymethyl)-N-(2-nitrobenzyl)benzenesulfonamide]: the Ki on hCA I was more than 10000 nM; at hCA II, more than 10000 nM; on hCA IX, 104 nM; at hCA XII it was 383 nM.

For `O=S(=O)(NCc1ccc(Cl)c(Cl)c1)c1ccccc1CO` [Compound 18, N-(3,4-dichlorobenzyl)-2-(hydroxymethyl)benzenesulfonamide], the Ki was more than 10000 nM on hCA I, more than 10000 nM on hCA II, 298 nM on hCA IX and 40 nM at hCA XII.

Take `O=S(=O)(NCc1c(F)cccc1F)c1ccccc1CO` [Compound 17, N-(2,6-difluorobenzyl)-2-(hydroxymethyl)benzenesulfonamide]: the Ki on hCA I was more than 10000 nM; at hCA II, more than 10000 nM; on hCA IX, 296 nM; at hCA XII, 45 nM.

On to `O=S(=O)(NCc1cccc(Br)c1)c1ccccc1CO` [Compound 9, N-(3-bromobenzyl)-2-(hydroxymethyl)-benzenesulfonamide], for which the Ki was more than 10000 nM on hCA I, more than 10000 nM on hCA II, 267 nM on hCA IX and 64 nM on hCA XII.

Regarding `O=S(=O)(NCc1ccccc1C(F)(F)F)c1ccccc1CO` [Compound 2, 2-(Hydroxymethyl)-N-(2-(trifluoromethyl)benzyl)benzenesulfonamide], the Ki on hCA I is more than 10000 nM; at hCA II it was more than 10000 nM; on hCA IX it was 200 nM; at hCA XII it was 54 nM.

`O=S(=O)(NCc1ccc(F)cc1)c1ccccc1CO` [Compound 14, N-(4-fluorobenzyl)-2-(hydroxymethyl)benzenesulfonamide]: the Ki on hCA I is more than 10000 nM; at hCA II, more than 10000 nM; at hCA IX, 26 nM; at hCA XII, 63 nM.

In the case of `O=S(=O)(NCc1ccc(Br)cc1)c1ccccc1CO` [Compound 16, N-(4-bromobenzyl)-2-(hydroxymethyl)benzenesulfonamide], the Ki is more than 10000 nM on hCA I, more than 10000 nM on hCA II, 145 nM on hCA IX and 432 nM at hCA XII.

Consider `O=S(=O)(NCc1cccc(F)c1)c1ccccc1CO` [Compound 8, N-(3-fluorobenzyl)-2-(hydroxymethyl)benzenesulfonamide], for which the Ki at hCA I was more than 10000 nM; at hCA II, more than 10000 nM; on hCA IX, 268 nM; at hCA XII, 247 nM.
